In patent US8969554B2, “6-acyl-1,2,4-triazine-3,5-dione derivative and herbicides” (Kumiai Chemical Industry Co., Ltd., priority 2010, dated 2015):

Tests used:
Format in all cases: in vivo
[1] = test system: Echinochloa oryzicola; assay: Herbicidal activity by paddy field soil treatment (Test Example 1); set-up: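 index 0 to 10 in 10% steps of herbicidal effect with 10 meaning complete death and 0 below 10%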; conditions: 1000 g of effective component per hectare, evaluated on day 21 after the treatment, criteria of Table 72
How it was run: (§1)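 Seeds were sown in puddled paddy soil in pots flooded to 3 cm water depth; the next day a water-diluted wettable powder was applied to the water surface at 1000 g active ingredient/ha. Plants were grown in a greenhouse and herbicidal effect scored by graded criteria on day 21 after treatment.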

[2] = test system: Monochoria vaginalis; assay: as above; set-up: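 index 0 to 10 in 10% steps of herbicidal effect with 10 meaning complete death and 0 below 10%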; conditions: 1000 g of effective component per hectare, evaluated on day 21 after the treatment, criteria of Table 72
How it was run: as §1

[3] = test system: Scirpus juncoides Rocxb.; assay: as above; set-up: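 index 0 to 10 in 10% steps of herbicidal effect with 10 meaning complete death and 0 below 10%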; conditions: applied on water surface, 1000 g of effective component per hectare, day 21 after the treatment
How it was run: as §1

[4] = test system: A. retroflexus; assay: Herbicidal activity by field soil treatment (Test example 2); set-up: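 index 0 to 10 in 10% steps of herbicidal effect with 10 meaning complete death and 0 below 10%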; conditions: 1000 g effective component per hectare, day 21 after the treatment
How it was run: (§2)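 Seeds were sown in field soil in 80 cm^2 pots and covered with soil. A water-diluted wettable powder was then sprayed onto the soil surface at 1000 liters per hectare, delivering 1000 g active ingredient per hectare. Plants grew in a greenhouse, and herbicidal effect was scored against set criteria 21 days after treatment.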

[5] = test system: Echinochloa crus-galli; assay: as above; set-up: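 index 0 to 10 in 10% steps of herbicidal effect with 10 meaning complete death and 0 below 10%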; conditions: 1000 g effective component per hectare, day 21 after the treatment
How it was run: as §2

[6] = test system: Indian millet; assay: as above; set-up: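 index 0 to 10 in 10% steps of herbicidal effect with 10 meaning complete death and 0 below 10%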; conditions: 1000 g effective component per hectare, day 21 after the treatment
How it was run: as §2

[7] = test system: A. retroflexus; assay: Herbicidal activity by field foliage treatment (Test example 3); set-up: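 index 0 to 10 in 10% steps of herbicidal effect with 10 meaning complete death and 0 below 10%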; conditions: 1000 g effective component per hectare, day 14 after the treatment
How it was run: (§3)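 Plants were grown from seed in field soil in a greenhouse for 2 weeks, then sprayed over the whole foliage with a water-diluted wettable powder at 1000 L/ha spray volume, delivering 1000 g active ingredient per hectare. Herbicidal effect was scored on day 14 after treatment.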

[8] = test system: Indian millet; assay: as above; set-up: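 index 0 to 10 in 10% steps of herbicidal effect with 10 meaning complete death and 0 below 10%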; conditions: 1000 g effective component per hectare, day 14 after the treatment
How it was run: as §3

[9] = test system: Echinochloa crus-galli; assay: as above; set-up: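 index 0 to 10 in 10% steps of herbicidal effect with 10 meaning complete death and 0 below 10%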; conditions: 1000 g effective component per hectare, day 14 after the treatment
How it was run: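 Potted field-soil plants grown 2 weeks in a greenhouse were sprayed over the whole foliage with diluted wettable powder at 1000 L/ha, delivering 1000 g active ingredient per hectare. Herbicidal effect scored by visual criteria 14 days after treatment.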

[10] = test system: Setaria viridis; assay: as above; conditions: 1000 g effective component per hectare, day 14 after the treatment;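 further: index 0 to 10 in 10% steps of herbicidal effect with 10 meaning complete death and 0 below 10%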
Protocol: Test example 3 Test for Determining Herbicidal Activity by Field Foliage Treatment A 80 cm^2 wide plastic pot was filled with a field soil and seeds of each of Indian millet and A. retroflexus were sowed and then incubated for 2 weeks in a green house. The wettable powder produced with reference to the Formulation example 1 was diluted water, and applied from the air to entire body of the plant as foliage treatment by using a small sprayer in an amount of 1000 liters per hectare so that the effective component is 1000 g per hectare. After that, the plants were cultivated in a greenhouse, and on day 14 after the treatment, evaluation was made by the criteria described in Table 72 for determining the herbicidal effects.

Row | SMILES | Herbicidal effects index number, Echinochloa oryzicola [1] | Herbicidal effects index number, Monochoria vaginalis [2] | herbicidal effect index, S. juncoides Rocxb. [3] | herbicidal effect index, Amaranthus retroflexus [4] | herbicidal effect index, Echinochloa crus-galli [5] | herbicidal effect index, Abutilon theophrasti [6] | herbicidal effect index, Amaranthus retroflexus [7] | herbicidal effect index, Abutilon theophrasti [8] | herbicidal effect index, Echinochloa crus-galli [9] | herbicidal effect index, Setaria viridis [10]
1 | CON=C(C)Cn1c(=O)c(C(=O)C2=C(O)CCCC2=O)nn(C)c1=O [I-471] | 10 | 10 | 10 | 10 | 7 | 10 | 10 | 10 | 9 | 10
2 | CC(C)N(c1ccccc1)n1c(=O)c(C(=O)C2=C(O)CCCC2=O)nn(C)c1=O [I-475] | 10 | 10 | 10 | 7 | 7 | 7 | 9 | 8 | 9 | 7
3 | CSc1c(Cl)cc(-n2c(=O)c(C(=O)O)nn(C)c2=O)cc1Cl [V-300] | 10 | 10 | 10 | 10 | 7 | 9 | 10 | 9 | 8 | 8
4 | Cn1c(=O)c(C(=O)C2=C(O)CCCC2=O)nn(-c2ccccn2)c1=O [I-274] | 8 | 8 | 4 | 7 | 7 | 8 | 9 | 8 | 9 | 8
5 | CCn1c(=O)c(C(=O)C2=C(O)CCCC2=O)nn(-c2ccccn2)c1=O [I-275] | 9 | 10 | 8 | 10 | 8 | 10 | 9 | 9 | 9 | 8
6 | Cn1nc(C(=O)C2=C(O)CCCC2=O)c(=O)n(-c2ccsc2)c1=O [I-199] | 9 | 8 | 9 | 10 | 9 | 10 | 9 | 9 | 10 | 8
7 | CC(CCn1c(=O)c(C(=O)C2=C(O)CCCC2=O)nn(C)c1=O)=C(F)F [I-27] | 10 | 10 | 10 | 10 | 10 | 10 | 9 | 9 | 9 | 6
8 | Cn1nc(C(=O)C2=C(O)CCCC2=O)c(=O)n(-c2ccc(Cl)cn2)c1=O [I-185] | 8 | 9 | 9 | 10 | 9 | 10 | 10 | 9 | 10 | 9
9 | Cc1ccc(-n2c(=O)c(C(=O)C3=C(O)CCCC3=O)nn(C)c2=O)c(C)c1 [I-90] | 9 | 10 | 10 | 10 | 8 | 10 | 10 | 9 | 8 | 7
10 | COc1ccccc1-n1c(=O)c(C(=O)C2=C(O)CCCC2=O)nn(C)c1=O [I-60] | 10 | 10 | 10 | 10 | 10 | 10 | 10 | 10 | 10 | 9
11 | CON=C(C)Cn1c(=O)c(C(=O)O)nn(C)c1=O [V-365] | 10 | 10 | 10 | 10 | 7 | 10 | 10 | 10 | 9 | 10
12 | Cn1nc(C(=O)C2=C(O)CCCC2=O)c(=O)n(-c2ccc(F)cn2)c1=O [I-184] | 10 | 10 | 10 | 10 | 8 | 10 | 10 | 9 | 10 | 8
13 | Cn1nc(C(=O)C2=C(O)CCCC2=O)c(=O)n(-c2cc(F)c(F)c(F)c2)c1=O [I-302] | 10 | 10 | 10 | 10 | 7 | 10 | 10 | 10 | 10 | 10
14 | Cn1nc(C(=O)C2=C(O)CCCC2=O)c(=O)n(-c2ccc(C(F)(F)F)cn2)c1=O [I-187] | 10 | 10 | 10 | 10 | 7 | 9 | 10 | 9 | 8 | 8
